Measured values reported in US9896435B2, “N-pyrrolidinyl,N′-pyrazolyl-urea, thiourea, guanidine and cyanoguanidine compounds as TrkA kinase inhibitors” (Array BioPharma Inc., priority 2012, dated 2018).

Each compound was assayed against His-tagged recombinant human TrkA (Homo sapiens (Human), UniProt P04629) (assay: TrkA LanthaScreen Eu Kinase Binding Assay). Conditions: averaged IC50; LanthaScreen binding assay of Example A; read-out: TrkA Enzyme IC50.
Description: TrkA binding activity was determined in a TrkA LanthaScreen™ Eu Kinase Binding Assay. 5 nM His-tagged recombinant human TrkA (6HIS tagged cytoplasmic domain from Invitrogen, Catalog No. PV3144) was incubated with 4 nM Alexa-Fluor® Tracer 236 (Invitrogen Cat. No. PV5592), 2 nM biotinylated anti-His (Invitrogen Cat. No. PV6090), and 2 nM europium-labeled Streptavidin (Invitrogen Cat. No. PV5899), in buffer (25 mM MOPS, pH 7.5, 5 mM MgCl2, 0.005% Triton X-100). Three fold serial dilutions of compounds of the invention in DMSO were added to a final percentage of 2% DMSO. After 60-minute incubation at 22° C., the reaction was measured using the EnVision mutlimode plate reader (PerkinElmer) via TR-FRET dual wavelength detection at […]. The percent of control was calculated using a ratiometric emission factor. The IC50 values were determined by fitting a four parameter model to the percent of control data.
Table A provides averaged IC50 values for compounds of the invention when tested in the assay of Example A, where A represents an averaged IC50 value<100 nM.

His-tagged recombinant human TrkA, sequence (P04629 440-796): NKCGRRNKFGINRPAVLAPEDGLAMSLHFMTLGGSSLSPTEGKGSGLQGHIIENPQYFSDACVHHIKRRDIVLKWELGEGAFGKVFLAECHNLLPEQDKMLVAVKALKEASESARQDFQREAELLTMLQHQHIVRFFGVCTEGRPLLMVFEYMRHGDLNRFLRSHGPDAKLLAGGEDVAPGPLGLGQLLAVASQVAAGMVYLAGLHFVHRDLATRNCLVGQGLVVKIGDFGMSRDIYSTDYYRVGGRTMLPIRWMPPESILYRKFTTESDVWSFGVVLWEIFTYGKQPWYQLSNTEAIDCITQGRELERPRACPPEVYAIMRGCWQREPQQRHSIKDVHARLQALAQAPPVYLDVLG

IC50, < 100 nM:
COCCN1C[C@@H](NC(=O)Nc2c(C)c(-c3ccc(=O)n(C)c3)nn2-c2ccccc2)[C@H](c2cc(F)c(F)c(F)c2)C1 [Example 26, 1-((3S,4R)-1-(2-methoxyethyl)-4-(3,4,5-trifluorophenyl)pyrrolidin-3-yl)-3-(4-methyl-3-(1-methyl-6-oxo-1,6-dihydropyridin-3-yl)-1-phenyl-1H-pyrazol-5-yl)urea]
CCOc1ncc(-c2nn(-c3ccccc3)c(NC(=O)N[C@@H]3CN(CCOC)C[C@H]3c3ccc(F)c(F)c3)c2C)cn1 [Example 9, 1-((3S,4R)-4-(3,4-difluorophenyl)-1-(2-methoxyethyl)pyrrolidin-3-yl)-3-(3-(2-ethoxypyrimidin-5-yl)-4-methyl-1-phenyl-1H-pyrazol-5-yl)urea]
COCCN1C[C@@H](NC(=O)Nc2c(C)c(-c3cnc(C)nc3)nn2-c2ccccc2)[C@H](c2ccc(F)cc2)C1 [Example 13, 1-((3S,4R)-4-(4-fluorophenyl)-1-(2-methoxyethyl)pyrrolidin-3-yl)-3-(4-methyl-3-(2-methylpyrimidin-5-yl)-1-phenyl-1H-pyrazol-5-yl)urea]
COCCN1C[C@@H](NC(=O)Nc2c(C)c(-c3ccc(=O)n(C)c3)nn2-c2ccccc2)[C@H](c2cccc(F)c2)C1 [Example 27, 1-((3S,4R)-4-(3-fluorophenyl)-1-(2-methoxyethyl)pyrrolidin-3-yl)-3-(4-methyl-3-(1-methyl-6-oxo-1,6-dihydropyridin-3-yl)-1-phenyl-1H-pyrazol-5-yl)urea]
COCCN1C[C@@H](NC(=O)Nc2c(C)c(-c3cnc(NC4CC4)nc3)nn2-c2ccccc2)[C@H](c2ccc(F)c(F)c2)C1 [Example 20, 1-(3-(2-(cyclopropylamino)pyrimidin-5-yl)-4-methyl-1-phenyl-1H-pyrazol-5-yl)-3-((3S,4R)-4-(3,4-difluorophenyl)-1-(2-methoxyethyl)pyrrolidin-3-yl)urea]
COCCN1C[C@@H](NC(=O)Nc2c(C)c(-c3ccc(OC)nc3)nn2-c2ccccc2)[C@H](c2ccc(F)c(F)c2)C1 [Example 8, 1-((3S,4R)-4-(3,4-difluorophenyl)-1-(2-methoxyethyl)pyrrolidin-3-yl)-3-(3-(6-methoxypyridin-3-yl)-4-methyl-1-phenyl-1H-pyrazol-5-yl)urea]
COCCN1C[C@@H](NC(=O)Nc2c(C)c(-c3ccc(=O)n(C)n3)nn2-c2ccccc2)[C@H](c2cc(F)cc(F)c2)C1 [Example 19, 1-((3S,4R)-4-(3,5-difluorophenyl)-1-(2-methoxyethyl)pyrrolidin-3-yl)-3-(4-methyl-3-(1-methyl-6-oxo-1,6-dihydropyridazin-3-yl)-1-phenyl-1H-pyrazol-5-yl)urea]
COCCN1C[C@@H](NC(=O)Nc2c(C)c(-c3cncc(C#N)c3)nn2-c2ccccc2)[C@H](c2ccc(F)c(F)c2)C1 [Example 7, 1-(3-(5-cyanopyridin-3-yl)-4-methyl-1-phenyl-1H-pyrazol-5-yl)-3-((3S,4R)-4-(3,4-difluorophenyl)-1-(2-methoxyethyl)pyrrolidin-3-yl)urea]
COCCN1C[C@@H](NC(=O)Nc2c(C)c(-c3cccnc3F)nn2-c2ccccc2)[C@H](c2ccc(F)c(F)c2)C1 [Example 3, 1-((3S,4R)-4-(3,4-difluorophenyl)-1-(2-methoxyethyl)pyrrolidin-3-yl)-3-(3-(2-fluoropyridin-3-yl)-4-methyl-1-phenyl-1H-pyrazol-5-yl)urea]
